Here are results for 1 compound from patent US20210070866A1, “Pharmaceutical Composition For Preventing Or Treating Tissue Adhesion Comprising Integrin a2ß1 Inhibitors” (KOREA UNIVERSITY RESEARCH AND BUSINESS FOUNDATION, priority 2019, published 2021).

One data set concerns hDMCs. Briefly: Cytotoxicity assay of BTT 3033 (cell viability assay, WST). In kind it is cell-based, human. To be noted: for Viability (A.U.): 37° C., 90 min. On the procedure:
To evaluate cell viability, EZ-Cytox cell viability assay kit (Daeillab Service Ltd., Seoul, Republic of Korea) was used according to the manufacturer's instructions. Water-soluble tetrazolium salt (WST) reagent was added to each well. After 1 hour of incubation, the absorbance of the supernatant was measured at the wavelength of 450 nm on a microplate absorbance reader. The viability was assessed by normalized absorbance values.
For cytotoxicity assay of BTT 3033, hDMCs were treated with BTT 3033 in a dose dependent manner and incubated at 37° C. for 90 min. After incubation, cell viability assay was performed.

The subject of the next data set is co-cultured hDMCs. Description: Adhesion assay of co-cultured hDMCs to ECM components after integrin α2β1 inhibitor treatment. Conditions: 130 nM, 37° C., 30 min. In kind it is cell-based, human. The procedure:
Adhesion assays identifying ECM components adhering to hDMC were performed using CytoSelect 48-well cell adhesion assay kits (Cell Biolabs Inc., San Diego, Calif.).
After detachment of naïve hDMCs and MΦ-co-cultured hDMCs, cell suspensions were prepared in serum-free DMEM. A total of 1.5×10^3 cells in 150 μl serum-free medium were added to each well and incubated for 1 hour at 37° C. After removal of the medium, the cells were washed four times with 150 μl PBS.
Cell staining and protein extraction were performed according to the manufacturer's instructions. Cellular adhesion was assessed by measuring the optical density at 560 nm on a Gemini XPS Microplate Reader (Molecular Devices, Sunnyvale, Calif.).
For an adhesion assay for the functional validation of integrin α2β1, the co-cultured hDMCs were incubated with 130 nM BTT 3033 at 37° C. for 30 min. After incubation, an adhesion assay was performed as described above.

In another data set the target is integrin α2β1 (Homo sapiens, UniProt P17301). Conditions: according to manufacturer's instructions; read-out: half maximal effective concentration (EC50); cited from earlier work.
Sequence of integrin α2β1 (P17301 30-1181): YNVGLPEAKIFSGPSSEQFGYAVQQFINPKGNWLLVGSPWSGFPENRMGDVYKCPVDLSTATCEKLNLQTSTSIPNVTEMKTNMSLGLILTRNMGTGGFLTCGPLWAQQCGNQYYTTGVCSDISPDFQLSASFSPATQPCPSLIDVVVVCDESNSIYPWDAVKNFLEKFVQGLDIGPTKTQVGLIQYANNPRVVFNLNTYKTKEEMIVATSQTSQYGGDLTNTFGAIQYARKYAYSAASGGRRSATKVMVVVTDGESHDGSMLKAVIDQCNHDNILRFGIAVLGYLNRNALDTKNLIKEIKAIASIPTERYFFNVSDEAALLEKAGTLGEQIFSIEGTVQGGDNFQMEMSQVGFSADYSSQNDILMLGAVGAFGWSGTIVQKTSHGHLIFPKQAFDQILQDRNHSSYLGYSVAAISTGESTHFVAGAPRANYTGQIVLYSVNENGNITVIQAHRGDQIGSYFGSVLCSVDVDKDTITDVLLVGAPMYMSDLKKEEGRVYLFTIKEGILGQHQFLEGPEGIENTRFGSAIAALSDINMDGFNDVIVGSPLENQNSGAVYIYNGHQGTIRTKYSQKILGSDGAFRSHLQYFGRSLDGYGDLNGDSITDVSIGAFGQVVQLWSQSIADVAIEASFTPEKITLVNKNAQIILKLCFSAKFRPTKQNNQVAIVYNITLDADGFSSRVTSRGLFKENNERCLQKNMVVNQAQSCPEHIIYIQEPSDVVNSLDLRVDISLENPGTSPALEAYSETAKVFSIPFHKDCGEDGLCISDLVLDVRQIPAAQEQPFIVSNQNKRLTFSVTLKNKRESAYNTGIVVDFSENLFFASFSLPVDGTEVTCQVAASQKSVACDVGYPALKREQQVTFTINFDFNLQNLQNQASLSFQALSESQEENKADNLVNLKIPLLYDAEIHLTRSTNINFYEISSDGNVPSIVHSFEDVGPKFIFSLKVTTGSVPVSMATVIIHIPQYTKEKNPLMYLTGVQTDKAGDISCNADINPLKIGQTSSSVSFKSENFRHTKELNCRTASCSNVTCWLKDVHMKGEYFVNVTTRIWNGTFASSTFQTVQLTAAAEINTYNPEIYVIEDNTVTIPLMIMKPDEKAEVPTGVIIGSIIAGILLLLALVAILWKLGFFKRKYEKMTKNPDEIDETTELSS
Sequence of integrin α2β1 (P05556 21-798 partner): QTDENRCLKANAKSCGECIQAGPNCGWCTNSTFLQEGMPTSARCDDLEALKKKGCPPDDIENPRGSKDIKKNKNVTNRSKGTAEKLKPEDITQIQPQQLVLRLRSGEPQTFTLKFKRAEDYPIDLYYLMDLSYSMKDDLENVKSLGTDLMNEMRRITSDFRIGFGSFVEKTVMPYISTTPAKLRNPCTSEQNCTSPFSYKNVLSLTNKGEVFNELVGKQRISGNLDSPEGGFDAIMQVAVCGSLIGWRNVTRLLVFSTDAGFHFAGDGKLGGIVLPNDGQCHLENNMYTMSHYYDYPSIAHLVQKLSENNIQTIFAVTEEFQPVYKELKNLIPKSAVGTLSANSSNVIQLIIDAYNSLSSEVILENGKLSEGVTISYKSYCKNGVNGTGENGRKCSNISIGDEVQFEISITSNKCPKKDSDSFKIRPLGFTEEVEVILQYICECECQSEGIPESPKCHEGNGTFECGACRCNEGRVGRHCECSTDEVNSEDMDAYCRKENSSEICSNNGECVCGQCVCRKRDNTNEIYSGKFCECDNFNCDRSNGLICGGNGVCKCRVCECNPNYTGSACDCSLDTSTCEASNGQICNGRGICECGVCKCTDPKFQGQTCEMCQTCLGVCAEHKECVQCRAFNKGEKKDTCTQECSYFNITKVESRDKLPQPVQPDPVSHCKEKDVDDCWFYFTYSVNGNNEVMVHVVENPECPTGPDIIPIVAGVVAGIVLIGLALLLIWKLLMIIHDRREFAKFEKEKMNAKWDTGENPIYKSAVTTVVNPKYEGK

As for `CN(c1ccc(NC(=O)Nc2ccccc2)cc1)S(=O)(=O)c1cnn(-c2ccc(F)cc2)c1` [BTT 3033, 1-(4-Fluorophenyl)-N-methyl-N-[4[[(phenylamino)carbonyl]amino]phenyl]-1H-pyrazole-4-sulfonamide], the “Viability (A.U.)” value with hDMCs (BTT 3033 16.25 nM) is 0.896 ± 0.090 A.U; in the data set on hDMCs (BTT 3033 32.50 nM) it was 0.844 ± 0.099 A.U; in the data set with hDMCs (BTT 3033 65.00 nM) it was 0.899 ± 0.075 A.U; in the data set with hDMCs (BTT 3033 130.00 nM), 0.800 ± 0.054 A.U; in the data set with hDMCs (BTT 3033 260.00 nM) it was 0.854 ± 0.081 A.U; in the data set with hDMCs (BTT 3033 520.00 nM) it was 0.827 ± 0.069 A.U. Further, the cytotoxicity result with hDMCs (concentration from 16.25 to 520.00 nM) is “less than 20.0%”. In addition, the “adhesion of co-cultured hDMCs to collagen I” value in the data set on co-cultured hDMCs (un-treated 0.43±0.03) turned out to be 0.27±0.04. Further, in the data set with co-cultured hDMCs (un-treated 0.44±0.08), the “adhesion of co-cultured hDMCs to collagen IV” value is given as 0.28±0.08. The “reduction of adhesion of co-cultured hDMCs to collagen I” value with co-cultured hDMCs (vs un-treated, p<0.001) was 37.8%. In addition, the “reduction of adhesion of co-cultured hDMCs to collagen IV” value in the data set on co-cultured hDMCs (vs un-treated, p=0.057) is 35.7%. Besides, the EC50 at integrin α2β1 is 0.13 µM.
